Data reported in US10647686B2, “Substituted pyrimidines for preventing or treating cancer and inflammatory diseases” (KOREA RESEARCH INSTITUTE OF CHEMICAL TECHNOLOGY, priority 2016, dated 2020).

Columns and labels:
DRAK2 = DRAK2 (Homo sapiens (Human), UniProt O94768); experiment: DRAK2 kinase activity inhibition (ADP-Glo, MRCL3 peptide substrate); assay type: biochemical; settings: for DRAK2 IC50 compared with Comparative Examples 7 and 8 (n is 0): from Table 5
Protocol: (§1) DRAK1 and DRAK2 recombinant proteins were purchased from SignalChem Inc. To measure the kinase enzyme activity, the ADP-Glo™ kit provided by Promega Inc. was used. Buffer A used in the kinase reaction was composed of 60 mM Tris-Cl (pH 7.5), 30 mM MgCl2 and 0.15% BSA. Just before the experiment, 1 mM DTT was prepared by diluting 1 M solution and added thereto.
(§2) To measure the DRAK1 and DRAK2 activity, the substrate MRCL3 peptide and ATP were mixed with the enzymes. After an appropriate period of time, the reaction product ADP was quantitatively analyzed.
(§3) The buffer solution A was used to make a 3× substrate solution of 3× concentration so that the final concentrations of ATP and MRCL3 peptides were 1 uM, respectively, and 2.5 μl of each solution was dispensed into Optiplate 384 (perkin-elmer) microplate.
(§4) The final concentrations of ATP and MRCL3 peptide were made to be 1 uM respectively by using buffer A, followed by preparing a 3× substrate solution. The prepared substrate solution was distributed in Optiplate 384 (Perkin-Elmer) microplate (2.5 ul/well). Then, the compounds of Examples 1˜39 and the compounds of Comparative Examples 1-6, whose concentrations were tripled by the final concentration were distributed thereto (2.5 ul/well). Lastly, DRAK1 or DRAK2 enzyme solution, properly diluted by using buffer A, was added thereto (2.5 ul/well). Centrifugation was performed at 800 rpm for 1 minute, and then enzyme reaction was induced at 30° C.
(§5) 2 hours later, the enzyme reaction was terminated. To eliminate residual ATP, ADP-Glo™ reagent contained in ADP-Glo™ was added to each well at the concentration of 7.5 ul, which was the same amount as the sum of the previously added reagents, followed by centrifugation at the same RPM and time as the above. Additional reaction was induced at room temperature for 40 minutes. To convert the ADP produced by the kinase activity to ATP, 15 ul of kinase detection buffer was added to each well, followed by centrifugation. Five minutes after the centrifugation was completed, the luminescence value of the reaction product was determined using Envision, and the enzyme activity inhibition effect of the compound was measured. Then, IC50 of each compound was determined using Prism program.
(§6) The compounds of Example 1 and Example 19 were used as the experimental group and the compound of Comparative Example 6 was used as the control.
To evaluate DRAK2 inhibition activity of the compound represented by formula 1 according to the number of n, the experiment was performed with the compounds of Example 1, Example 19, Example 40, Comparative Example 7 and W Comparative Example 8 by the same manner as described in Experimental Example 1, leading to the measurement of IC50 to DRAK2.

DRAK1 = DRAK1 (Homo sapiens (Human), UniProt Q9UEE5); experiment: DRAK1 kinase activity inhibition (ADP-Glo, MRCL3 peptide substrate); assay type: biochemical
DRAK1, sequence (Q9UEE5 whole entry): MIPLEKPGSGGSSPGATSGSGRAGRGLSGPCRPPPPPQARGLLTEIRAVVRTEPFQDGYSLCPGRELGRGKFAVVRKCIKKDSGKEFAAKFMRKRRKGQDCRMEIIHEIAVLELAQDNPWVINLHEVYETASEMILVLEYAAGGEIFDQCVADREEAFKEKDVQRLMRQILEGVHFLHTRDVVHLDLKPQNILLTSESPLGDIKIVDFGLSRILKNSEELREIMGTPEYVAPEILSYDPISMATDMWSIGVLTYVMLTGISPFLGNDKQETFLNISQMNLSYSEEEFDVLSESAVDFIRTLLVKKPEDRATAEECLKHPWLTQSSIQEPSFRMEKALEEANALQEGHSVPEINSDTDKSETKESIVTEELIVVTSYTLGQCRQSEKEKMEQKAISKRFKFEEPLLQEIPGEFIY
Protocol: as §1, §2, §3, §4, §5, §6

[1] = Table 3, recombinant enzyme, 1 uM ATP, 1 uM MRCL3 peptide, 30° C., 2 hours
[2] = Table 4, Experimental Example 2, DRAK2 selectivity evaluation
[3] = Table 5, Experimental Example 3, according to the number of n

DRAK2, sequence (O94768 whole entry): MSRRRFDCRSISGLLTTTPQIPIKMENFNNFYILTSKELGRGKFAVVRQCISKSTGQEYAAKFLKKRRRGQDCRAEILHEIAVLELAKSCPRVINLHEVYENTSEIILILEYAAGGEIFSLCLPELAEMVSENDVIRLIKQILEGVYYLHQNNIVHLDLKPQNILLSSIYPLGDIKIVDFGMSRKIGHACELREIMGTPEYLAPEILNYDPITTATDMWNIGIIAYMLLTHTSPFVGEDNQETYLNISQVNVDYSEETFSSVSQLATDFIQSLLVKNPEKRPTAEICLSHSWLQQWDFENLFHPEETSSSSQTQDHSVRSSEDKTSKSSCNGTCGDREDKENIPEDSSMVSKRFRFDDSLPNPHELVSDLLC

Row | IC50 (DRAK2; [1]) | IC50 (DRAK1; [1]) | IC50 (DRAK2; [2]) | IC50 (DRAK2; [3]) | DRAK2 selectivity (DRAK2 versus DRAK1) (DRAK2; result in words, from Table 4) | DRAK2 IC50 compared with Comparative Examples 7 and 8 (n is 0) (DRAK2; result in words) | IC50 (DRAK1; [2]) | Compound
1 | 14 nM | 110 nM |  |  |  |  |  | NCCCNc1nc(Nc2ccc(S(=O)(=O)c3ccc([N+](=O)[O-])cc3)cc2)ncc1Cl [Example 13, N4-(3-aminopropyl)-5-chloro-N2-(4-(4-nitrophenylsulfonyl)phenyl)pyrimidine-2,4-diamine]
2 | 37 nM | 220 nM |  |  |  |  |  | Cc1ccc(Nc2ncc(Cl)c(NCCCN)n2)cc1C [Example 14, N4-(3-aminopropyl)-5-chloro-N2-(3,4-dimethylphenyl)pyrimidine-2,4-diamine]
3 | 26 nM | 180 nM |  |  |  |  |  | NCCCNc1nc(Nc2ccc(F)c(C(F)(F)F)c2)ncc1Cl [Example 15, N4-(3-aminopropyl)-5-chloro-N2-(4-fluoro-3-(trifluoromethyl)phenyl)pyrimidine-2,4-diamine]
4 | 34 nM | 740 nM |  |  |  |  |  | NCCCNc1nc(Nc2ccc(Br)c(C(F)(F)F)c2)ncc1Cl [Example 16, N4-(3-aminopropyl)-N2-(4-bromo-3-(trifluoromethyl)phenyl)-5-chloropyrimidine-2,4-diamine]
5 | 23 nM | 390 nM |  |  |  |  |  | NCCCNc1nc(Nc2ccc(Br)cc2)ncc1Cl [Example 17, N4-(3-aminopropyl)-N2-(4-bromophenyl)-5-chloropyrimidine-2,4-diamine]
6 | 35 nM | 180 nM |  |  |  |  |  | COc1ccc(Nc2ncc(Cl)c(NCCCN)n2)cc1Cl [Example 18, N4-(3-aminopropyl)-5-chloro-N2-(3-chloro-4-methoxyphenyl)pyrimidine-2,4-diamine]
7 | 23 nM | 710 nM | 23 nM | 23 nM | excellent DRAK2 selectivity | significantly lower IC50 | 710 nM | Cc1cnc(Nc2ccc(Cl)cc2)nc1NCCCN [Example 19, N4-(3-aminopropyl)-N2-(4-chlorophenyl)-5-methylpyrimidine-2,4-diamine]
8 | 16 nM | 350 nM |  |  |  |  |  | NCCCNc1nc(Nc2ccc3c(c2)OCO3)ncc1Cl [Example 20, N4-(3-aminopropyl)-N2-(benzo[d][1,3]dioxol-5-yl)-5-chloropyrimidine-2,4-diamine]
9 | 21 nM | 220 nM |  |  |  |  |  | NCCCNc1nc(Nc2ccc3c(c2)CCC3)ncc1Cl [Example 21, N4-(3-aminopropyl)-5-chloro-N2-(2,3-dihydro-1H-indene-5-yl)pyrimidine-2,4-diamine]
10 | 24 nM | 220 nM |  |  |  |  |  | NCCCNc1nc(Nc2ccc3c(c2)OCCO3)ncc1Cl [Example 22, N4-(3-aminopropyl)-5-chloro-N2-(2,3-dihydrobenzo[b][1,4]dioxin-6-yl)pyrimidine-2,4-diamine]
11 | 15 nM | 160 nM |  |  |  |  |  | NCCCNc1nc(Nc2ccc3c(c2)CCCC3)ncc1Cl [Example 23, N4-(3-aminopropyl)-5-chloro-N2-(5,6,7,8-tetrahydronaphthalene-2-yl)pyrimidine-2,4-diamine]
12 | 19 nM | 230 nM |  |  |  |  |  | NCCCNc1nc(Nc2ccc3c(c2)CCCC3=O)ncc1Cl [Example 24, 6-(4-(3-aminopropylamino)-5-chloropyrimidine-2-ylamino)-3,4-dihydronaphthalene-1(2H)-one]
13 | 22 nM | 30 nM |  |  |  |  |  | NCCCNc1nc(Nc2ccc(N3CCNCC3)cc2)ncc1Cl [Example 25, N4-(3-aminopropyl)-5-chloro-N2-(4-(piperazine-1-yl)phenyl)pyrimidine-2,4-diamine]
14 | 47 nM | 480 nM |  | 47 nM |  | significantly lower IC50 |  | NCCCCNc1nc(Nc2ccc(Cl)cc2)ncc1Cl [Example 40, N4-(4-n-aminobutyl)-N2-(4-chlorophenyl)-5-chloropyrimidine-2,4-diamine]
